Values of other authors in US20080103199A1, “TREATMENT OF PERVASIVE DEVELOPMENTAL DISORDERS” (priority 2006, published 2008).

Tested on: dominant rats
Conditions: administered to dominant rats; literature (Malatynska 2002); cited from earlier work

SMILES | Effect on competitive behavior of dominant rats
NC(=O)N1c2ccccc2C=Cc2ccccc21 [carbamazepine] | significantly reduced competitive behavior
Clc1cccc(Cl)c1N=C1NCCN1 [clonidine] | significantly reduced competitive behavior
